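1) Cells in 96-well plates. 2) Compound, 48 h, 5 concentrations. 3) Linear interpolation between surrounding doses. 4) Unreached endpoint = highest concentration. Abbreviation: GI50, concentration required for 50% inhibition of growth. TGI denotes the concentration required for complete inhibition of growth.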
Columns and labels:
Test in all cases: growth of human tumour cells (NCI), 48 h
DU-145 prostate = system: DU-145 prostate
HL-60(TB) leukemia = system: HL-60(TB) leukemia
MCF7 breast = system: MCF7 breast
HOP-62 NSCLC = system: HOP-62 NSCLC
OVCAR-8 ovarian = system: OVCAR-8 ovarian
RXF 393 renal = system: RXF 393 renal
MOLT-4 leukemia = system: MOLT-4 leukemia
MALME-3M melanoma = system: MALME-3M melanoma
NCI-H460 lung = system: NCI-H460 lung
BT-549 breast = system: BT-549 breast
MDA-MB-435 = system: MDA-MB-435
LOX IMVI melanoma = system: LOX IMVI melanoma
OVCAR-4 ovarian = system: OVCAR-4 ovarian
HT29 colon = system: HT29 colon
NCI-H226 lung = system: NCI-H226 lung
IGROV1 ovarian = system: IGROV1 ovarian
HCT-15 colon = system: HCT-15 colon
COLO 205 colon = system: COLO 205 colon
UO-31 renal = system: UO-31 renal
RPMI-8226 leukemia = system: RPMI-8226 leukemia
SF-295 CNS = system: SF-295 CNS
HCC-2998 colon = system: HCC-2998 colon
SF-268 CNS = system: SF-268 CNS
SR leukemia = system: SR leukemia
PC-3 prostate = system: PC-3 prostate
SW-620 colon = system: SW-620 colon
SK-MEL-5 melanoma = system: SK-MEL-5 melanoma
SK-OV-3 ovarian = system: SK-OV-3 ovarian
MDA-MB-468 breast = system: MDA-MB-468 breast
UACC-257 melanoma = system: UACC-257 melanoma
A498 renal = system: A498 renal
SK-MEL-28 melanoma = system: SK-MEL-28 melanoma
SNB-19 CNS = system: SNB-19 CNS
NCI-H23 lung = system: NCI-H23 lung
EKVX NSCLC = system: EKVX NSCLC
UACC-62 melanoma = system: UACC-62 melanoma
M14 melanoma = system: M14 melanoma
OVCAR-5 ovarian = system: OVCAR-5 ovarian
U251 CNS = system: U251 CNS
T-47D breast = system: T-47D breast
KM12 colon = system: KM12 colon
HCT-116 colon = system: HCT-116 colon
CAKI-1 renal = system: CAKI-1 renal
HOP-92 NSCLC = system: HOP-92 NSCLC
HS 578T breast = system: HS 578T breast
OVCAR-3 ovarian = system: OVCAR-3 ovarian
MDA-MB-231 breast = system: MDA-MB-231 breast
TK-10 renal = system: TK-10 renal
NCI/ADR-RES ovarian = system: NCI/ADR-RES ovarian
NCI-H522 lung = system: NCI-H522 lung
K-562 leukemia = system: K-562 leukemia
SF-539 CNS = system: SF-539 CNS
CCRF-CEM leukemia = system: CCRF-CEM leukemia
A549 NSCLC = system: A549 NSCLC
786-0 renal = system: 786-0 renal
SN12C renal = system: SN12C renal
ACHN renal = system: ACHN renal

Structure (SMILES): Cc1ccc(-c2ccc(SCC(=O)Nc3ccc(Cl)c(C(F)(F)F)c3)nn2)cc1
- GI50 (DU-145 prostate): 2.37 µM
- TGI (DU-145 prostate): 17.9 µM
- GI50 (HL-60(TB) leukemia): 0.319 µM
- TGI (HL-60(TB) leukemia): 2.32 µM
- GI50 (MCF7 breast): 0.563 µM
- TGI (MCF7 breast): > 100 µM
- GI50 (HOP-62 NSCLC): 1.23 µM
- TGI (HOP-62 NSCLC): 24.1 µM
- GI50 (OVCAR-8 ovarian): 2.71 µM
- TGI (OVCAR-8 ovarian): > 100 µM
- GI50 (RXF 393 renal): 1.1 µM
- TGI (RXF 393 renal): 5.93 µM
- GI50 (MOLT-4 leukemia): 0.578 µM
- TGI (MOLT-4 leukemia): > 100 µM
- GI50 (MALME-3M melanoma): 0.589 µM
- TGI (MALME-3M melanoma): 36.5 µM
- GI50 (NCI-H460 lung): 3.22 µM
- TGI (NCI-H460 lung): > 100 µM
- GI50 (BT-549 breast): 0.829 µM
- TGI (BT-549 breast): 46.2 µM
- GI50 (MDA-MB-435): 0.22 µM
- TGI (MDA-MB-435): 0.513 µM
- GI50 (LOX IMVI melanoma): 2.48 µM
- TGI (LOX IMVI melanoma): > 100 µM
- GI50 (OVCAR-4 ovarian): 5.86 µM
- TGI (OVCAR-4 ovarian): > 100 µM
- GI50 (HT29 colon): 0.512 µM
- TGI (HT29 colon): > 100 µM
- GI50 (NCI-H226 lung): 8.36 µM
- TGI (NCI-H226 lung): > 100 µM
- GI50 (IGROV1 ovarian): 1.46 µM
- TGI (IGROV1 ovarian): 46.4 µM
- GI50 (HCT-15 colon): 0.405 µM
- TGI (HCT-15 colon): > 100 µM
- GI50 (COLO 205 colon): 1.06 µM
- TGI (COLO 205 colon): 3.51 µM
- GI50 (UO-31 renal): 3.16 µM
- TGI (UO-31 renal): > 100 µM
- GI50 (RPMI-8226 leukemia): 0.986 µM
- TGI (RPMI-8226 leukemia): > 100 µM
- GI50 (SF-295 CNS): 0.5 µM
- TGI (SF-295 CNS): 8.22 µM
- GI50 (HCC-2998 colon): 1.29 µM
- TGI (HCC-2998 colon): 10.5 µM
- GI50 (SF-268 CNS): 9.67 µM
- TGI (SF-268 CNS): > 100 µM
- GI50 (SR leukemia): 0.34 µM
- TGI (SR leukemia): > 100 µM
- GI50 (PC-3 prostate): 0.878 µM
- TGI (PC-3 prostate): > 100 µM
- GI50 (SW-620 colon): 0.393 µM
- TGI (SW-620 colon): > 100 µM
- GI50 (SK-MEL-5 melanoma): 0.435 µM
- TGI (SK-MEL-5 melanoma): 8.76 µM
- GI50 (SK-OV-3 ovarian): 3.82 µM
- TGI (SK-OV-3 ovarian): 65.3 µM
- GI50 (MDA-MB-468 breast): 0.371 µM
- TGI (MDA-MB-468 breast): 2.25 µM
- GI50 (UACC-257 melanoma): 12.1 µM
- TGI (UACC-257 melanoma): > 100 µM
- GI50 (A498 renal): 3.75 µM
- TGI (A498 renal): 38 µM
- GI50 (SK-MEL-28 melanoma): 5.77 µM
- TGI (SK-MEL-28 melanoma): > 100 µM
- GI50 (SNB-19 CNS): 3.21 µM
- TGI (SNB-19 CNS): 56.6 µM
- GI50 (NCI-H23 lung): 2 µM
- TGI (NCI-H23 lung): 32.7 µM
- GI50 (EKVX NSCLC): 2.93 µM
- TGI (EKVX NSCLC): > 100 µM
- GI50 (UACC-62 melanoma): 0.531 µM
- TGI (UACC-62 melanoma): 39.4 µM
- GI50 (M14 melanoma): 0.538 µM
- TGI (M14 melanoma): > 100 µM
- GI50 (OVCAR-5 ovarian): 3.24 µM
- TGI (OVCAR-5 ovarian): > 100 µM
- GI50 (U251 CNS): 1.47 µM
- TGI (U251 CNS): 38.5 µM
- GI50 (T-47D breast): 0.594 µM
- TGI (T-47D breast): > 100 µM
- GI50 (KM12 colon): 0.732 µM
- TGI (KM12 colon): > 100 µM
- GI50 (HCT-116 colon): 0.445 µM
- TGI (HCT-116 colon): > 100 µM
- GI50 (CAKI-1 renal): 1.72 µM
- TGI (CAKI-1 renal): > 100 µM
- GI50 (HOP-92 NSCLC): 2.95 µM
- TGI (HOP-92 NSCLC): 59.5 µM
- GI50 (HS 578T breast): 1.05 µM
- TGI (HS 578T breast): 8.14 µM
- GI50 (OVCAR-3 ovarian): 0.409 µM
- TGI (OVCAR-3 ovarian): 1.94 µM
- GI50 (MDA-MB-231 breast): 1.15 µM
- TGI (MDA-MB-231 breast): 19.3 µM
- GI50 (TK-10 renal): 12.7 µM
- TGI (TK-10 renal): 52.8 µM
- GI50 (NCI/ADR-RES ovarian): 0.393 µM
- TGI (NCI/ADR-RES ovarian): 2.14 µM
- GI50 (NCI-H522 lung): 0.528 µM
- TGI (NCI-H522 lung): 4 µM
- GI50 (K-562 leukemia): 0.419 µM
- TGI (K-562 leukemia): > 100 µM
- GI50 (SF-539 CNS): 0.754 µM
- TGI (SF-539 CNS): 3.35 µM
- GI50 (CCRF-CEM leukemia): 0.459 µM
- TGI (CCRF-CEM leukemia): > 100 µM
- GI50 (A549 NSCLC): 5.34 µM
- TGI (A549 NSCLC): > 100 µM
- GI50 (786-0 renal): 0.892 µM
- TGI (786-0 renal): 37.7 µM
- GI50 (SN12C renal): 4.85 µM
- TGI (SN12C renal): > 100 µM
- GI50 (ACHN renal): 6.84 µM
- TGI (ACHN renal): > 100 µM

From PubChem BioAssay (NCI)
